Some test systems named below: 786-0 renal; SK-MEL-5 melanoma; NCI/ADR-RES ovarian; KM12 colon; HCT-15 colon; U251 CNS; ACHN renal; SF-295 CNS; NCI-H226 lung; HT29 colon; TK-10 renal; UO-31 renal; SF-268 CNS; DU-145 prostate; OVCAR-8 ovarian; HCC-2998 colon; SK-MEL-2 melanoma; MOLT-4 leukemia.
Assay in all cases: NCI tumour cell line growth inhibition, 48 h

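Test compounds were applied to cells in 96-well plates for 48 hours at 5 doses. TGI denotes the concentration required for complete inhibition of growth.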

`C/C(=N\N=C1/C(=O)OC(c2ccccc2)=C1C(=O)c1ccccc1)c1ccc([N+](=O)[O-])cc1`: the TGI is above 100 µM in the assay on 786-0 renal; above 100 µM in the assay with SK-MEL-5 melanoma; above 100 µM in the assay on NCI/ADR-RES ovarian; above 100 µM in the assay with KM12 colon; 67.6 µM with HCT-15 colon; above 100 µM in the assay on U251 CNS. For the same molecule, the TGI in the assay on ACHN renal is above 100 µM; in the assay on SF-295 CNS, above 100 µM; in the assay on NCI-H226 lung, 79.4 µM; in the assay with HT29 colon, above 100 µM; in the assay with TK-10 renal, above 100 µM; in the assay with UO-31 renal, above 100 µM. Moreover, the TGI in the assay on SF-268 CNS is above 100 µM; in the assay with DU-145 prostate, above 100 µM; in the assay on OVCAR-8 ovarian, above 100 µM; in the assay with HCC-2998 colon, above 100 µM; with SK-MEL-2 melanoma, above 100 µM; in the assay on MOLT-4 leukemia, 52.7 µM.

Turning to `CC(C)c1cc2c(c(O)c1O)[C@@]1(C(=O)O)CCCC(C)(C)[C@@H]1CC2`, the TGI in the assay with 786-0 renal is above 100 µM; in the assay on SK-MEL-5 melanoma, 47.2 µM; in the assay on NCI/ADR-RES ovarian, 31.3 µM; with KM12 colon it was 27 µM; in the assay with HCT-15 colon, above 100 µM; with U251 CNS it was 30.3 µM. Further, the TGI is 26.2 µM in the assay on ACHN renal; 68.5 µM in the assay on SF-295 CNS; 29.4 µM with NCI-H226 lung; 30.7 µM in the assay with HT29 colon; 31.5 µM with TK-10 renal; 27.4 µM in the assay on UO-31 renal. Further, the TGI with SF-268 CNS was 41.3 µM; in the assay with DU-145 prostate it was above 100 µM; in the assay on OVCAR-8 ovarian, 30.1 µM; in the assay on HCC-2998 colon, 28.8 µM; with SK-MEL-2 melanoma, 41.6 µM; with MOLT-4 leukemia, 37.2 µM.

With `COc1ccc(C2OC(c3ccncc3)=NN2C)cc1F` (stereo not given), the TGI in the assay on 786-0 renal, with SK-MEL-5 melanoma, in the assay on NCI/ADR-RES ovarian, in the assay on KM12 colon, with HCT-15 colon and in the assay on U251 CNS was above 100 µM throughout. Besides, the TGI with ACHN renal, with SF-295 CNS, in the assay on NCI-H226 lung, with HT29 colon, with TK-10 renal and in the assay on UO-31 renal was above 100 µM each time. For the same molecule, the TGI with SF-268 CNS, in the assay on DU-145 prostate, with OVCAR-8 ovarian, with HCC-2998 colon, in the assay on SK-MEL-2 melanoma and with MOLT-4 leukemia was above 100 µM each time.

On to `O=C1c2ccccc2C(=O)N1n1c(Cc2ccc([N+](=O)[O-])cc2)n[nH]c1=O`, for which the TGI in the assay on 786-0 renal, with SK-MEL-5 melanoma, in the assay with NCI/ADR-RES ovarian, in the assay with KM12 colon, in the assay with HCT-15 colon and in the assay on U251 CNS was above 100 µM in each case. The TGI in the assay with ACHN renal, in the assay on SF-295 CNS, with NCI-H226 lung, in the assay on HT29 colon, in the assay with TK-10 renal and in the assay with UO-31 renal was above 100 µM in each case. Also, the TGI in the assay with SF-268 CNS, in the assay on DU-145 prostate, in the assay with OVCAR-8 ovarian, in the assay with HCC-2998 colon, in the assay with SK-MEL-2 melanoma and with MOLT-4 leukemia was above 100 µM each time.

In the case of `O=[N+]([O-])C(=C(Nc1cccc2cccnc12)Nc1cccc2cccnc12)C(Cl)=C(Cl)Cl`, the TGI was above 100 µM in the assay on 786-0 renal; 30.5 µM with SK-MEL-5 melanoma; above 94 µM in the assay on NCI/ADR-RES ovarian; above 100 µM in the assay with KM12 colon; above 100 µM in the assay with HCT-15 colon; above 100 µM in the assay on U251 CNS. Further, the TGI was above 51.1 µM in the assay with ACHN renal; above 100 µM in the assay on SF-295 CNS; above 100 µM with NCI-H226 lung; above 100 µM in the assay on HT29 colon; above 100 µM in the assay with TK-10 renal; above 100 µM in the assay on UO-31 renal. Also, the TGI in the assay with SF-268 CNS was above 100 µM; in the assay with DU-145 prostate it was above 100 µM; with OVCAR-8 ovarian, above 100 µM; with HCC-2998 colon, above 100 µM; with SK-MEL-2 melanoma, above 54 µM; with MOLT-4 leukemia it was above 100 µM.

For `CCNC(=S)NNC(=O)C12CC3CC(CC(C3)C1)C2`, the TGI with 786-0 renal, in the assay on SK-MEL-5 melanoma, in the assay on NCI/ADR-RES ovarian, with KM12 colon, in the assay on HCT-15 colon and with U251 CNS was above 100 µM throughout. Further, the TGI with ACHN renal, in the assay with SF-295 CNS, in the assay with NCI-H226 lung, in the assay on HT29 colon, with TK-10 renal and in the assay with UO-31 renal was above 100 µM in each case. Besides, the TGI in the assay with SF-268 CNS, with DU-145 prostate, with OVCAR-8 ovarian, in the assay with HCC-2998 colon, with SK-MEL-2 melanoma and in the assay with MOLT-4 leukemia was above 100 µM each time.

`Cc1c2cc[n+](C)c(C)c2cc2c1[nH]c1ccccc12`: the TGI was above 39.5 µM with 786-0 renal; 11 µM in the assay on SK-MEL-5 melanoma; above 93.4 µM in the assay on NCI/ADR-RES ovarian; 21.1 µM in the assay with KM12 colon; above 100 µM in the assay with HCT-15 colon; 8.41 µM with U251 CNS. The TGI is above 100 µM with ACHN renal; 32.3 µM in the assay on SF-295 CNS; 10.8 µM in the assay on NCI-H226 lung; 83.8 µM in the assay on HT29 colon; above 100 µM in the assay on TK-10 renal; above 100 µM with UO-31 renal. In addition, the TGI was 5.6 µM in the assay on SF-268 CNS; above 78 µM with DU-145 prostate; above 93.4 µM in the assay with OVCAR-8 ovarian; 32.2 µM in the assay with HCC-2998 colon; 30.5 µM with SK-MEL-2 melanoma; 75.2 µM with MOLT-4 leukemia.

With `O=[N+]([O-])C(=C(Nc1ccccc1)Nc1ccccc1)C(Cl)=C(Cl)Cl`, the TGI was 29.4 µM in the assay on 786-0 renal; 29.2 µM in the assay on SK-MEL-5 melanoma; 58.2 µM with NCI/ADR-RES ovarian; above 55.5 µM with KM12 colon; 32.3 µM in the assay on HCT-15 colon; 35.3 µM in the assay on U251 CNS. Moreover, the TGI in the assay with ACHN renal is 30.7 µM; in the assay with SF-295 CNS, 36.4 µM; in the assay with NCI-H226 lung, 40.4 µM; in the assay with HT29 colon it was 34.6 µM; in the assay on TK-10 renal, 38 µM; in the assay with UO-31 renal, 39.6 µM. Besides, the TGI in the assay with SF-268 CNS turned out to be 40 µM; in the assay on DU-145 prostate, 34.5 µM; in the assay with OVCAR-8 ovarian, 48.5 µM; in the assay on HCC-2998 colon it was 37.9 µM; in the assay on SK-MEL-2 melanoma, 28.3 µM; in the assay on MOLT-4 leukemia, 1.09 µM.

Consider `CCCCCCCCCCCC[S+](C)C`, for which the TGI was 13.3 µM with 786-0 renal; 9.25 µM in the assay on SK-MEL-5 melanoma; above 91.9 µM in the assay with NCI/ADR-RES ovarian; 14.3 µM with KM12 colon; 53.8 µM with HCT-15 colon; 31.7 µM in the assay with U251 CNS. In addition, the TGI amounted to 19.4 µM in the assay on ACHN renal; 16.6 µM with SF-295 CNS; 15.4 µM with NCI-H226 lung; 18.3 µM with HT29 colon; 18.3 µM in the assay on TK-10 renal; 27.2 µM in the assay with UO-31 renal. Also, the TGI with SF-268 CNS is 20.2 µM; in the assay on DU-145 prostate, 17.6 µM; with OVCAR-8 ovarian it was 17.9 µM; in the assay on HCC-2998 colon it was 16.8 µM; with SK-MEL-2 melanoma, 17.6 µM; with MOLT-4 leukemia, 28.2 µM.

`CC(C)SC(=S)Sc1c(Cl)c(Cl)nc(Cl)c1Cl`: the TGI with 786-0 renal is 5.54 µM; with SK-MEL-5 melanoma, 29.1 µM; with NCI/ADR-RES ovarian it was 61.2 µM; in the assay on KM12 colon, 21.4 µM; with HCT-15 colon it was above 34.1 µM; in the assay on U251 CNS, 14 µM. In addition, the TGI came out at 18.6 µM in the assay on ACHN renal; 30.5 µM with SF-295 CNS; 50.3 µM in the assay on NCI-H226 lung; 12.5 µM in the assay on HT29 colon; 18.4 µM in the assay on TK-10 renal; 21.2 µM with UO-31 renal. Moreover, the TGI came to 32.9 µM with SF-268 CNS; 11.3 µM in the assay with DU-145 prostate; 10.5 µM in the assay on OVCAR-8 ovarian; 12.7 µM with HCC-2998 colon; 22.4 µM in the assay on SK-MEL-2 melanoma; 8.69 µM in the assay with MOLT-4 leukemia.

Values taken from PubChem BioAssay (NCI).
